Measured values published in US11903387B2 (priority 2016, dated 2024).
Where “and” joins values, the source holds several entries; their conditions need not be identical. Equal values may be shown once. Read-outs that look alike come from different tables or passages of the source.

What was measured:
Phytophthora infestans = test: whole plant or invertebrate; type: in vivo
[1] = tested on: Pseudoperonospora cubensis; test: Test 2: control effect against cucumber downy mildew; type: in vivo
[2] = component (b) alone 0.08 ppm, average of three repeats
[3] = component (b) alone 0.4 ppm, average of three repeats
[4] = component (b) alone 2 ppm, average of three repeats

C#CCOc1ccc(CCNC(=O)C(OCC#C)c2ccc(Cl)cc2)cc1OC (stereo not drawn) [Mandipropamid]
Test 1 Measured preventive value (Phytophthora infestans; [2]): 36.7 | Test 1 Measured preventive value (Phytophthora infestans; [3]): 95.5 | Test 1 Measured preventive value (Phytophthora infestans; [4]): 100.0 | Test 1 Measured (Phytophthora infestans; component (b) alone, 0.08 ppm): 40.0 | Test 1 Measured preventive value (Phytophthora infestans; component (b) alone, 0.08 ppm): 36.7 | Test 1 Measured (Phytophthora infestans; component (b) alone, 0.4 ppm): 94.0 | Test 1 Measured preventive value (Phytophthora infestans; component (b) alone, 0.4 ppm): 95.5 | Test 1 Measured (Phytophthora infestans; component (b) alone, 2 ppm): 100.0 | Test 1 Measured preventive value (Phytophthora infestans; component (b) alone, 2 ppm): 100.0 | Test 2 Measured preventive value [1, 2]: 5 | Test 2 Measured preventive value [1, 3]: 89.5 | Test 2 Measured preventive value [1, 4]: 95 | Test 2 Measured ([1]; component (b) alone, 0.08 ppm): 12 | Test 2 Measured preventive value ([1]; component (b) alone, 0.08 ppm): 5 | Test 2 Measured ([1]; component (b) alone, 0.4 ppm): 88.3 | Test 2 Measured preventive value ([1]; component (b) alone, 0.4 ppm): 89.5 | Test 2 Measured ([1]; component (b) alone, 2 ppm): 95 | Test 2 Measured preventive value ([1]; component (b) alone, 2 ppm): 95

Fc1ccc(Oc2ccnc3cc(Cl)cc(Cl)c23)cc1 [Quinoxyfen]
pest or weed control at 10 ppm (Phytophthora infestans; Phytophthora infestans, in Solanum lycopersicum, read-out: Test 1 preventive value, Measured, applied alone, 10 ppm): 0% | pest or weed control at 50 ppm (Phytophthora infestans; Phytophthora infestans, in Solanum lycopersicum, read-out: Test 1 preventive value, Measured, applied alone, 50 ppm): 0% | pest or weed control at 250 ppm (Phytophthora infestans; Phytophthora infestans, in Solanum lycopersicum, read-out: Test 1 preventive value, Measured, applied alone, 250 ppm): 0% | pest or weed control at 250 ppm ([1]; Pseudoperonospora cubensis, component (b) alone 250 ppm, read-out: Test 2 Measured): 0% | pest or weed control at 10 ppm ([1]; Pseudoperonospora cubensis, component (b) alone, 10 ppm, read-out: Test 2 Measured): 0% | pest or weed control at 50 ppm ([1]; Pseudoperonospora cubensis, component (b) alone, 50 ppm, read-out: Test 2 Measured): 0%

Cc1ccc(-c2c(Cl)nc(C#N)n2S(=O)(=O)N(C)C)cc1 [Cyazofamid]
pest or weed control at 0.08 ppm (Phytophthora infestans; Phytophthora infestans, in Solanum lycopersicum, read-out: Test 1 Measured preventive value, component (b) alone 0.08 ppm, average of three repeats): 46.7% | pest or weed control at 0.4 ppm (Phytophthora infestans; Phytophthora infestans, in Solanum lycopersicum, read-out: Test 1 Measured preventive value, component (b) alone 0.4 ppm, average of three repeats): 95.5% | pest or weed control at 2 ppm (Phytophthora infestans; Phytophthora infestans, in Solanum lycopersicum, read-out: Test 1 Measured preventive value, component (b) alone 2 ppm, average of three repeats): 100% | pest or weed control at 0.08 ppm (Phytophthora infestans; Phytophthora infestans, in Solanum lycopersicum, read-out: Test 1 Measured preventive value, component (b) alone, 0.08 ppm): 46.7% | pest or weed control at 0.4 ppm (Phytophthora infestans; Phytophthora infestans, in Solanum lycopersicum, read-out: Test 1 Measured preventive value, component (b) alone, 0.4 ppm): 95.5% | pest or weed control at 2 ppm (Phytophthora infestans; Phytophthora infestans, in Solanum lycopersicum, read-out: Test 1 Measured preventive value, component (b) alone, 2 ppm): 100% | pest or weed control at 0.08 ppm (Phytophthora infestans; Phytophthora infestans, in Solanum lycopersicum, read-out: Test 1 Measured, component (b) alone, 0.08 ppm): 32% | pest or weed control at 0.4 ppm (Phytophthora infestans; Phytophthora infestans, in Solanum lycopersicum, read-out: Test 1 Measured, component (b) alone, 0.4 ppm): 96% | pest or weed control at 2 ppm (Phytophthora infestans; Phytophthora infestans, in Solanum lycopersicum, read-out: Test 1 Measured, component (b) alone, 2 ppm): 100% | pest or weed control at 0.003 ppm ([1]; Pseudoperonospora cubensis, component (b) alone, 0.003 ppm, read-out: Test 2 Measured): 0% | pest or weed control at 0.08 ppm ([1]; Pseudoperonospora cubensis, component (b) alone, 0.08 ppm, read-out: Test 2 Measured): 99% | pest or weed control at 0.4 ppm ([1]; Pseudoperonospora cubensis, component (b) alone, 0.4 ppm, read-out: Test 2 Measured): 100% | Test 2 Measured preventive value ([1]; component (b) alone 0.003 ppm, average of three repeats): 0 | Test 2 Measured preventive value [1, 2]: 99.5 | Test 2 Measured preventive value [1, 3]: 100 | Test 2 Measured preventive value ([1]; component (b) alone, 0.003 ppm): 0 | Test 2 Measured preventive value ([1]; component (b) alone, 0.08 ppm): 99.5 | Test 2 Measured preventive value ([1]; component (b) alone, 0.4 ppm): 100

CCNc1nc(CC)c(C(=O)NC(C#N)c2cccs2)s1 (stereo not drawn) [Ethaboxam]
Test 1 Measured preventive value (Phytophthora infestans; component (b) alone, 2 ppm): 95 | Test 1 Measured preventive value (Phytophthora infestans; component (b) alone, 10 ppm): 98.3 | Test 1 Measured preventive value (Phytophthora infestans; component (b) alone, 50 ppm): 97.8 | Test 2 Measured preventive value ([1]; component (b) alone, 2 ppm): 88.3 | Test 2 Measured preventive value ([1]; component (b) alone, 10 ppm): 99.5 | Test 2 Measured preventive value ([1]; component (b) alone, 50 ppm): 100

CC(C)NC(=O)N1CC(=O)N(c2cc(Cl)cc(Cl)c2)C1=O [Iprodione]
pest or weed control at 20 ppm (Phytophthora infestans; Phytophthora infestans, in Solanum lycopersicum, read-out: Test 1 Measured, component (b) alone 20 ppm): 0% | pest or weed control at 100 ppm (Phytophthora infestans; Phytophthora infestans, in Solanum lycopersicum, read-out: Test 1 Measured, component (b) alone 100 ppm): 0% | pest or weed control at 500 ppm (Phytophthora infestans; Phytophthora infestans, in Solanum lycopersicum, read-out: Test 1 Measured, component (b) alone 500 ppm): 5% | pest or weed control at 20 ppm ([1]; Pseudoperonospora cubensis, component (b) alone 20 ppm, read-out: Test 2 Measured): 0% | pest or weed control at 100 ppm ([1]; Pseudoperonospora cubensis, component (b) alone 100 ppm, read-out: Test 2 Measured): 0% | pest or weed control at 500 ppm ([1]; Pseudoperonospora cubensis, component (b) alone 500 ppm, read-out: Test 2 Measured): 0%

Propineb
Test 1 Measured (Phytophthora infestans; component (b) alone, 2 ppm): 0.0 | Test 1 Measured preventive value (Phytophthora infestans; component (b) alone, 2 ppm): 0.0 | Test 1 Measured (Phytophthora infestans; component (b) alone, 10 ppm): 36.1 | Test 1 Measured preventive value (Phytophthora infestans; component (b) alone, 10 ppm): 48.3 | Test 1 Measured (Phytophthora infestans; component (b) alone, 50 ppm): 99.0 | Test 1 Measured preventive value (Phytophthora infestans; component (b) alone, 50 ppm): 98.3 | Test 2 Measured ([1]; component (b) alone, 2 ppm): 17.5 | Test 2 Measured preventive value ([1]; component (b) alone, 2 ppm): 7.5 | Test 2 Measured ([1]; component (b) alone, 10 ppm): 95 | Test 2 Measured preventive value ([1]; component (b) alone, 10 ppm): 94.3 | Test 2 Measured ([1]; component (b) alone, 50 ppm): 100 | Test 2 Measured preventive value ([1]; component (b) alone, 50 ppm): 100

Cc1cc(C(F)(F)F)nn1CC(=O)N1CCC(c2nc(C3OCc4cccc(OS(C)(=O)=O)c4CO3)cs2)CC1 (stereo not drawn) [Compound 1-6, 4-[4-(6-methylsulfonyloxy-1,5-dihydro-3H-2,4-benzodioxepin-3-yl)-2-thiazolyl]-1-[2-[5-methyl-3-(trifluoromethyl)-1H-pyrazol-1-yl]acetyl]piperidine]
pest or weed control at 0.06 ppm (Phytophthora infestans; Phytophthora infestans, in Solanum lycopersicum, read-out: Test 1 Measured preventive value, Compound 1-6 alone 0.06 ppm, average of three repeats): 25% | pest or weed control at 0.3 ppm (Phytophthora infestans; Phytophthora infestans, in Solanum lycopersicum, read-out: Test 1 Measured preventive value, Compound 1-6 alone 0.3 ppm, average of three repeats): 99.5% | pest or weed control at 0.3 ppm (Phytophthora infestans; Phytophthora infestans, in Solanum lycopersicum, read-out: Test 1 Measured preventive value, Compound alone, 0.3 ppm): 98.3% | pest or weed control at 0.3 ppm (Phytophthora infestans; Phytophthora infestans, in Solanum lycopersicum, read-out: Test 1 Measured, Compound alone 0.3 ppm): 98% | pest or weed control at 0.06 ppm (Phytophthora infestans; Phytophthora infestans, in Solanum lycopersicum, read-out: Test 1 preventive value, Measured, applied alone, 0.06 ppm): 68.3% | pest or weed control at 0.3 ppm (Phytophthora infestans; Phytophthora infestans, in Solanum lycopersicum, read-out: Test 1 preventive value, Measured, applied alone, 0.3 ppm): 97.7% | Test 2 Measured preventive value ([1]; Compound 1-6 alone 0.06 ppm, average of three repeats): 5 | Test 2 Measured preventive value ([1]; Compound 1-6 alone 0.3 ppm, average of three repeats): 93.8 | Test 2 Measured preventive value ([1]; Compound alone, 0.3 ppm): 69.58 and 96.3 | pest or weed control at 0.3 ppm ([1]; Pseudoperonospora cubensis, Compound alone 0.3 ppm, read-out: Test 2 Measured): 98.5% | pest or weed control at 0.06 ppm ([1]; Pseudoperonospora cubensis, applied alone, 0.06 ppm, read-out: Test 2 preventive value, Measured): 40% | pest or weed control at 0.3 ppm ([1]; Pseudoperonospora cubensis, applied alone, 0.3 ppm, read-out: Test 2 preventive value, Measured): 98%

O=C(NCc1ncc(C(F)(F)F)cc1Cl)c1c(Cl)cccc1Cl [Fluopicolide]
Test 1 Measured (Phytophthora infestans; component (b) alone, 0.4 ppm): 0.0 | Test 1 Measured (Phytophthora infestans; component (b) alone, 2 ppm): 30.0 | Test 1 Measured (Phytophthora infestans; component (b) alone, 10 ppm): 90.8 | Test 2 Measured ([1]; component (b) alone, 0.4 ppm): 5 | Test 2 Measured ([1]; component (b) alone, 2 ppm): 98.3 | Test 2 Measured ([1]; component (b) alone, 10 ppm): 100
